Measured values from ChEMBL document CHEMBL1201862, “PubChem BioAssay data set” (2004).
One block for each compound: values may come before it. Activity calls are given as the source filed them.

What was measured:
CAAX prenyl protease 2 = CAAX prenyl protease 2 (Homo sapiens, UniProt Q9Y256); assay: human Rce1 protease inhibitors, dose response, biochemical, yeast membranes, quenched-peptide fluorescence, cherry-pick (AID 588849)
[1] = target: Disintegrin and metalloproteinase domain-containing protein 17 (Homo sapiens, UniProt P78536); assay: exosite inhibitors of ADAM17, dose response, biochemical (AID 743260)
Disintegrin and metalloproteinase domain-containing protein 17, sequence (P78536 whole entry, the tested form may be a part): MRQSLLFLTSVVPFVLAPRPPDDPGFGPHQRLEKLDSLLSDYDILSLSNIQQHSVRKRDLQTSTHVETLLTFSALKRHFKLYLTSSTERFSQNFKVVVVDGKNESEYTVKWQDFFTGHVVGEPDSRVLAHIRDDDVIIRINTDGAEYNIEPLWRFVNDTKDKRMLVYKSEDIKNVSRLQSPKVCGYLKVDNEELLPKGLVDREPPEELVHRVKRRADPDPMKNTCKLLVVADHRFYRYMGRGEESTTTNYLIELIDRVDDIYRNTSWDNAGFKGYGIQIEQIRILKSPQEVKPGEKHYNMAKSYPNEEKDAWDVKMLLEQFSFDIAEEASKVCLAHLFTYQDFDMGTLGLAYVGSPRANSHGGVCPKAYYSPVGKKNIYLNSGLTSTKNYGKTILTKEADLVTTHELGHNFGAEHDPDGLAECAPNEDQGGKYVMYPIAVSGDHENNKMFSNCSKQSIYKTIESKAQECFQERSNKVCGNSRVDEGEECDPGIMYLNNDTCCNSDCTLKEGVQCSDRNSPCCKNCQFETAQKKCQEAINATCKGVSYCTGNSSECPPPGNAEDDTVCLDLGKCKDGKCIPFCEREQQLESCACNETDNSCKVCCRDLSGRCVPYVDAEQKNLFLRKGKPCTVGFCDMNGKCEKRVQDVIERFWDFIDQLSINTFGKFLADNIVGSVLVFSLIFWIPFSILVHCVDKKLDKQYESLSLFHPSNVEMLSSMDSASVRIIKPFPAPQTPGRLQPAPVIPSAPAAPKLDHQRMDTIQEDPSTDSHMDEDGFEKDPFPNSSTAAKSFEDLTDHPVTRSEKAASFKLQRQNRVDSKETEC

[2] = ADAM10 protease inhibitors, dose response, selectivity assay for ADAM17 exosite inhibitor project, biochemical, FRET peptide substrate, recombinant human ADAM10 (AID 743259);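 further: ADAM10 enzyme cleaving a FRET peptide substrate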
Vero = assay: host cell cytotoxicity of antiviral hits, dose response, cytotoxicity control for West Nile virus antiviral project, secondary assay (AID 1650); assay type: functional; conditions: Chlorocebus sabaeus
[3] = inhibitors of intracellular T. cruzi replication, confirmation, NIH3T3 host cells, beta-gal luminescence (AID 2044); assay type: functional, cell-based;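 further: intracellular parasites grown in NIH/3T3 mouse fibroblasts as host cells; luminescent beta-galactosidase reporter signal from transgenic T. cruzi replicating inside host cells; inhibitors lower the luminescence signal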
[4] = cytotoxicity toward NIH3T3 fibroblasts, dose response, counter-screen, cell-based, ATP luminescence, mouse fibroblasts (AID 2010); assay type: functional;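 further: cells exposed to compound for about 90 hours before reading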
Insulin-degrading enzyme [5] = target: T1, Insulin-degrading enzyme (Homo sapiens, UniProt P14735); assay: activators of recombinant IDE enzyme, dose response, counter-screen for IDE activator project, biochemical, fluorescence polarization (AID 588681)
T1 sequence (P14735 whole entry): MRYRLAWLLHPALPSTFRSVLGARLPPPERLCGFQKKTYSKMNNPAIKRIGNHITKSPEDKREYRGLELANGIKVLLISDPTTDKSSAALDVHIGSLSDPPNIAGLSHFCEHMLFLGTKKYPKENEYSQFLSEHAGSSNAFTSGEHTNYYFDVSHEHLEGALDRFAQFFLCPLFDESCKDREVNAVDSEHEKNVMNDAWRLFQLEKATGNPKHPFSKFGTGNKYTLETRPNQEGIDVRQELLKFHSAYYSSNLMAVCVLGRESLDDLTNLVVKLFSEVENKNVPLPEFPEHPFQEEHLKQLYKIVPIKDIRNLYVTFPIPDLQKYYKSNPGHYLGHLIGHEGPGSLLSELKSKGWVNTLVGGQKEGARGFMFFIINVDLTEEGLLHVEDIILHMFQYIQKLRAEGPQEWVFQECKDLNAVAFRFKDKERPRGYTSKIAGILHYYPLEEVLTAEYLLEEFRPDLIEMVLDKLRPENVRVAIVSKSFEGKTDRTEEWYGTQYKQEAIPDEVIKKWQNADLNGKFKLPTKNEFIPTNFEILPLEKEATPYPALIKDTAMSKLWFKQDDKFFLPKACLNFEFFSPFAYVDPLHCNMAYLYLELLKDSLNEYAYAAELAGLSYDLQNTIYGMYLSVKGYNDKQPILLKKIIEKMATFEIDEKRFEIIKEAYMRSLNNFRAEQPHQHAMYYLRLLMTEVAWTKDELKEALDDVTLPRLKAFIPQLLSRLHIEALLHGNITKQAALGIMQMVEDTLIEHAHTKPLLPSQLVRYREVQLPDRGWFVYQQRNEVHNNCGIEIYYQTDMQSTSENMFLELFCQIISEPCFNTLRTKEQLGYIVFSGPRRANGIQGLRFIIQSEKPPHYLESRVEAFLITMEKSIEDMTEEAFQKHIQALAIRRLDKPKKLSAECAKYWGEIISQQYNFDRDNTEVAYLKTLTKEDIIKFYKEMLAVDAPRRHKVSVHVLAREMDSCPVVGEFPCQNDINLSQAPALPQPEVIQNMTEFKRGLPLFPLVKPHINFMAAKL

Insulin-degrading enzyme [6] = target: T1, Insulin-degrading enzyme; assay: activators of endogenous IDE in HEK cells, dose response, cell-based, fluorescence polarization (AID 588439); assay type: functional
HEK293 [7] = assay: HEK cell cytotoxicity by LDH release, dose response, cytotoxicity control for IDE activator project, fluorescence, HEK cells (AID 588440); assay type: functional, cell-based; conditions: Homo sapiens;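 further: cytotoxicity by LDH release measuring loss of membrane integrity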
HEK293 [8] = assay: optical interference in Abeta FP readout, dose response, artefact control for IDE activator project, biochemical, fluorescence polarization (AID 588442); assay type: functional, cell-based; conditions: Homo sapiens
[9] = target: Dual specificity protein kinase CLK1 (Homo sapiens, UniProt P49759); assay: CLK1 kinase inhibitors, off-target check, dose response, selectivity assay for Dyrk1A inhibitor project, biochemical, cherry-picked samples (AID 588811)
Dual specificity protein kinase CLK1, sequence (P49759 whole entry): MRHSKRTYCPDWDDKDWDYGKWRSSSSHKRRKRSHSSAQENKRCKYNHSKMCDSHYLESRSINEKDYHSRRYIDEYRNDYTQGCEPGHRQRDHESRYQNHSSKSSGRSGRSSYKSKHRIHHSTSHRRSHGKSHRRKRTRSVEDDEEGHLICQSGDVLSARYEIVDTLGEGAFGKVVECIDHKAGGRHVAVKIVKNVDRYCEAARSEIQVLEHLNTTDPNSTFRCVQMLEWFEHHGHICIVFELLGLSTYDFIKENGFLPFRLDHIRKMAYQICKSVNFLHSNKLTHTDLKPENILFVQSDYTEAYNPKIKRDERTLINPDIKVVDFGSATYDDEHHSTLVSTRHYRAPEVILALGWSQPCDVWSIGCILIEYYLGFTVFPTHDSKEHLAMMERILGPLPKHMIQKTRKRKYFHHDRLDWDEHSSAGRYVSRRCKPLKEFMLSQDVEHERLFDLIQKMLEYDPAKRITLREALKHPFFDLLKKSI

[10] = target: Dual specificity tyrosine-phosphorylation-regulated kinase 1A (Rattus norvegicus, UniProt Q63470); assay type: biochemical, Homo sapiens
Interleukin-8 = target: T2, Interleukin-8 (Homo sapiens, UniProt P10145); assay: Dose Response confirmation of uHTS small molecule hits for cystic fibrosis induced NFkb Inhibitors in a PAF-induced IL8 counterscreen.; assay type: functional; conditions: read-out: IC50_Mean
T2 sequence (P10145 whole entry): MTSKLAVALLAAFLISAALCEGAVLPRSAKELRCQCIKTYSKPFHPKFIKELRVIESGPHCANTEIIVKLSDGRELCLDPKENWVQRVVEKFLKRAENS

CAAX prenyl protease 2, sequence (Q9Y256 whole entry, the tested form may be a part): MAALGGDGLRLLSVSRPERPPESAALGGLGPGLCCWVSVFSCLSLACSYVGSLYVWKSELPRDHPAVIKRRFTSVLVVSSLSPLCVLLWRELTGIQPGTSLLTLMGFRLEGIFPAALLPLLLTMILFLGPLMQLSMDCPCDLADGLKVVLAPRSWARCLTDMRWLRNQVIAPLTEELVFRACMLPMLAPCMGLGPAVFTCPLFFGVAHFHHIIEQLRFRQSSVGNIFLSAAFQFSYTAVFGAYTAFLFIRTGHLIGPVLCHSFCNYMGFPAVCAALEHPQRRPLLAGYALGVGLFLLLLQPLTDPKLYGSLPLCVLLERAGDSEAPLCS

AC50 (CAAX prenyl protease 2): > 100 µM (inactive)
IC50 [1]: > 69.5 µM (inactive)
Compound: O=C(Nc1cccc2ccccc12)c1ccc(OC(=S)N2CCOCC2)cc1
IC50 [2]: > 69.5 µM (inactive)

Compound: CCN1CCN(c2cc(C)c3cc(NC(=S)N4CCN(c5ccccc5)CC4)ccc3n2)CC1
CC50 (Vero): 19.5 µM (active)
EC50 [3]: 1.79 µM (active)
EC50 [4]: > 60 µM (not active)
EC50 (Insulin-degrading enzyme [5]): > 54.7 µM (inactive)
EC50 (Insulin-degrading enzyme [6]): > 54.7 µM (inactive)
IC50 (HEK293 [7]): > 89.2 µM (inactive)
EC50 (HEK293 [8]): > 54.7 µM (inactive)

AC50 [9]: 190 nM (active)
AC50 [10]: 811 nM (active)
IC50 (Interleukin-8): 10.5 µM (inactive)
Compound: CC1Cc2ccccc2N1c1ncnc2nc[nH]c12 (stereo not given)

AC50 [9]: 3940 nM (active)
AC50 [10]: 4910 nM (active)
Compound: COc1cccc(Nc2ncnc3ccccc23)c1
